In patent publication US20180313843A1, “SAMHD1 MODULATION FOR TREATING RESISTANCE TO CANCER THERAPY” (priority 2015, published 2018):
In brackets after ≈: the same amount, converted by molar mass. Each block holds one compound with its values, some of them ahead of it.

Columns and labels:
AML cell lines = assay: Cell viability assay (MTT), cytarabine in panel of AML cell lines; format: cell-based; conditions: Homo sapiens, read-out: IC50 values (concentrations inhibiting 50% of cell growth) of cytarabine; range over AML cell lines
Procedure: (§1) Cell viability assay. Cell viability of the AML cell lines and primary AML cultures were determined by the 3-(4,5-dimethylthiazol-2-yl)-2,5-diphenyltetrazolium bromide (MTT) dye reduction assay after 96 hour incubation as described previously (reference 7). Due to lower cell proliferation frequencies of the primary cells the CellTiter-Glo® Luminescent Cell Viability Assay (Promega) was used according to manufacturer's instruction. Here, the number of viable cells was determined 96 hours post treatment based on the quantification of the ATP levels.

THP-1 −/− = assay: Cell viability, Ara-C with or without 3-DU and other NAs, SAMHD1 knock-out; format: cell-based, human
Procedure: THP-1 CRISP/Cas9 control and SAMHD1 knock-out cells were provided by Prof. Veit Hornung and cultivated in RPMI supplemented with 10% FCS, 100 IU/ml penicillin, and […] streptomycin. PDX cells were thawed and cultivated as previously described (Vick, 2015).
as §1

OCI-AML3 shSAMHD1 = assay: Cell viability, Ara-C with or without 3-DU, SAMHD1 knock-down; format: cell-based, human; conditions: OCI-AML-3, SAMHD1 shRNA compared to control shRNA
HEL SAMHD1 wt = assay: Cell viability, Ara-C with or without 3-DU, SAMHD1 wt over-expression; format: cell-based, human; conditions: for dependence of anti-leukemic activity on expression levels of SAMHD1: THP-1 (−/−) vs (+/+), AML panel and HEL versus HEL SAMHD1 wt cells
BFTC 905 = assay: Ara-C/SAMHD1-inhibitor combination treatment, urothelial carcinoma cells; format: cell-based; conditions: Homo sapiens, BFTC-905, read-out: IC50 value Ara-C
SIG-M5 cells = assay: Cytarabine toxicity after SAMHD1 shRNA knock-down; format: cell-based, human; conditions: SIG-M5, SAMHD1 shRNA compared to control shRNA
[1] = test system: THP-1 (−/−) and THP-1 (+/+) cells; assay: Cytarabine triphosphate measurement by liquid chromatography tandem mass spectrometry; format: cell-based, human; conditions: 10 μg/ml cytarabine for 6 h
Procedure: dNTP measurement. […] Subsequently, cells were washed twice in 1×PBS, pelleted and stored at −20° C. until measurement. The samples were analyzed at the Institute of Clinical Pharmacology (Goethe University Frankfurt) by liquid chromatography-electrospray ionization-tandem mass spectrometry as previously described (reference 8).
Briefly, the analytes were extracted by protein precipitation with methanol. An anion exchange HPLC column (BioBasic AX, Thermo) was used for the chromatographic separation and a 5500 QTrap (Sciex, Darmstadt, Germany) was used as analyzer, operating as triple quadrupole in positive multiple reaction monitoring (MRM) mode. Additional to the analytes reported in the publication, 13C3-Ara-CMP, 13C3-Ara-CDP and 13C3-Ara-CTP were quantified using the validated method and cytidine-^13C9, ^15N3-5′-triphosphate as internal standard (IS). The precursor-to-product ion transitions used as quantifiers were m/z 327.0→115.1 for 13C3-Ara-CMP, m/z 407.0→115.1 for 13C3-Ara-CDP and m/z 487.0→115.1 for 13C3-Ara-CTP. A calibration curve was constructed for the quantitation of 13C3-Ara-CMP while no calibration standards were commercially available for 13C3-Ara-CDP and 13C3-Ara-CTP. For this reason, these analytes were quantified semiquantitatively by comparing the peak area ratios (analyte/IS) determined in the differently treated samples.

THP-1 cells = assay: Cytotoxic effects of cytarabine in VLP-treated THP-1 cells; format: cell-based, human; conditions: Vpx-VLPs treated THP-1 cells
[2] = test system: HELrAra-C, HL-60rAra-C and Molm-13rAra-C; assay: Cytarabine cytotoxicity in Ara-C resistant AML sublines; format: cell-based, human
Procedure: Ara-C resistant cell lines THP-1, HEL, HL-60, Molm13, and Molt4 were established by continuous exposure to increasing drug concentrations and are part of the Resistant Cancer Cell Line (RCCL) collection (http://www.kent.ac.uk/stms/cmp/RCCL/RCCLabout). The generation of resistant cell lines required 1 to 2 years, depending on the cell line used. All cell lines were maintained in IMDM supplemented with 10% FCS (SIG-M5 20% FCS), […] L-Glutamine, 100 IU/ml penicillin, and […] streptomycin at 37° C. in a humidified 5% CO2 incubator. 293T cells were maintained as previously described (Keppler et al).
as §1
Remarkably, expression levels of SAMHD1 were increased in resistant cells relative to the parental cell lines (FIGS. 8A and B).

glioma cell line U251-MG = assay: Effect of Vpx-VLPs on cytotoxic activity of cytarabine in glioma cells; format: cell-based; conditions: U251-MG treated with Vpx-VLPs
[3] = test system: intracellular Ara-CTP, CTP and dCTP levels; assay: Effect of 3-DU and Ara-C on intracellular triphosphate levels; format: cell-based; conditions: 3-DU treatment in combination with Ara-C
Procedure: dNTP measurement. 5×10^5 cells were treated with 10 μg/ml Ara-C 13C3 (Santa Cruz) and incubated at 37° C. in a humidified 5% CO2 incubator for 6 hours. Subsequently, cells were washed twice in 1×PBS, pelleted and stored at −20° C. until measurement. The samples were analyzed at the Institute of Clinical Pharmacology (Goethe University Frankfurt) by liquid chromatography-electrospray ionization-tandem mass spectrometry as previously described (reference 8).
Briefly, the analytes were extracted by protein precipitation with methanol. […] Additional to the analytes reported in the publication, 13C3-Ara-CMP, 13C3-Ara-CDP and 13C3-Ara-CTP were quantified using the validated method and cytidine-^13C9, ^15N3-5′-triphosphate as internal standard (IS). The precursor-to-product ion transitions used as quantifiers were m/z 327.0→115.1 for 13C3-Ara-CMP, m/z 407.0→115.1 for 13C3-Ara-CDP and m/z 487.0→115.1 for 13C3-Ara-CTP. A calibration curve was constructed for the quantitation of 13C3-Ara-CMP while no calibration standards were commercially available for 13C3-Ara-CDP and 13C3-Ara-CTP. For this reason, these analytes were quantified semiquantitatively by comparing the peak area ratios (analyte/IS) determined in the differently treated samples. […]

SAMHD1 = target: T1, SAMHD1 (Homo sapiens, UniProt Q9Y3Z3); assay: Enzymatic in vitro assay with bacterially expressed SAMHD1 protein (triphosphohydrolase activity); format: biochemical; conditions: dGTP used as activator of SAMHD1
T1 construct: made in house
T1 sequence (Q9Y3Z3 whole entry): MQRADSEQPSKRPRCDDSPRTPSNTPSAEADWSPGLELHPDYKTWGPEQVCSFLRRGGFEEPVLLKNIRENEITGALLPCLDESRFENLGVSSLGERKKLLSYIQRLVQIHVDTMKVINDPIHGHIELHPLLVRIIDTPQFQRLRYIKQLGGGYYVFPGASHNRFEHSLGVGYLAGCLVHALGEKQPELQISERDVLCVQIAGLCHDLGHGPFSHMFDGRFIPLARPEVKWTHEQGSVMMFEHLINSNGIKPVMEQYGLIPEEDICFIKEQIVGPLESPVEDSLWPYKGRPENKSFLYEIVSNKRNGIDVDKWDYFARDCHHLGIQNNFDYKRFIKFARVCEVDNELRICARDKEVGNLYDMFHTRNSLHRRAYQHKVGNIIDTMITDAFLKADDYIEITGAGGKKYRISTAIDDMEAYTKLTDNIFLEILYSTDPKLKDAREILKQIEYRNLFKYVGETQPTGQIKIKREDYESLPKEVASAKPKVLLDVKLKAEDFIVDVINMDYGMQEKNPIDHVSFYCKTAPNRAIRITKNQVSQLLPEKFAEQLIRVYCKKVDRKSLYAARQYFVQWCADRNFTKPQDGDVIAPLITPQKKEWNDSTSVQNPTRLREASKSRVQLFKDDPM
Excerpt: SAMHD1 hydrolyzes intracellular dNTPs resulting in a reduction of intracellular dNTP pools.

Compound: Nc1ccn([C@@H]2O[C@H](CO)[C@@H](O)[C@@H]2O)c(=O)n1 [Ara-C, cytarabine]
IC50 (AML cell lines): 0.0078 to 0.56 µg/mL (≈ 0.0321 to 2.3 µM)
increase of cytarabine toxicity in SAMHD1 knock-out cells (THP-1 −/−; THP-1 (−/−) relative to control THP-1 (+/+)): about 50 fold
increase of cytarabine toxicity by SAMHD1 knock-down (OCI-AML3 shSAMHD1): about 6 fold
decrease of sensitivity to cytarabine by wt SAMHD1 over-expression (HEL SAMHD1 wt; HEL wt SAMHD1 compared to parental HEL or HEL SAMHD1 D207N): about 70 fold
IC50 (BFTC 905): 0.021 µg/mL
increase of cytarabine toxicity by SAMHD1 knock-down (SIG-M5 cells): ~9 fold
cytarabine triphosphate amounts accumulated, THP-1(−/−) compared with THP-1(+/+) [1]: About 20 fold
increase of cytarabine's anti-leukemic activity (THP-1 cells): about 20 fold
IC50 ([2]; Homo sapiens, read-out: IC50 values of cytarabine, range over highly resistant sublines of HEL, HL-60 and MOLM-13): 24 to 94 µg/mL (≈ 98.7 to 386 µM)
toxicity of cytarabine after reduction of SAMHD1 levels using Vpx-VLPs ([2]; all three cell lines tested): increased toxicity
enhancement of the anti-tumoral activity of cytarabine (glioma cell line U251-MG): up to 10 fold

Compound: Nc1nc(F)nc2c1ncn2[C@@H]1O[C@H](CO)[C@@H](O)[C@@H]1O [fludarabine]
IC50 lower in THP-1 (−/−) cells than in THP-1 (+/+) cells (THP-1 −/−): 5 fold

Compound: O=C1C=CN([C@@H]2O[C@H](CO)[C@@H](O)[C@H]2O)C(=O)C1 [3-DU, 3-deazauridin]
intracellular Ara-CTP levels [3]: strongly increased
intracellular cytodine-triphosphate (CTP) and dCTP levels [3]: reducing

Compound: Nc1nc2c(ncn2[C@@H]2O[C@H](CO)[C@@H](O)[C@@H]2O)c(=O)[nH]1 [Ara-G]
dependence of anti-leukemic activity on expression levels of SAMHD1 (HEL SAMHD1 wt): depends on expression levels of SAMHD1 albeit to a lesser extent than for cytarabine

IC50 lower in THP-1 (−/−) cells than in THP-1 (+/+) cells (THP-1 −/−): 5 fold
Compound: COc1nc(N)nc2c1ncn2[C@@H]1O[C@H](CO)[C@@H](O)[C@@H]1O [nelarabine]
dependence of anti-leukemic activity on expression levels of SAMHD1 (HEL SAMHD1 wt): depends on expression levels of SAMHD1 albeit to a lesser extent than for cytarabine

IC50 lower in THP-1 (−/−) cells than in THP-1 (+/+) cells (THP-1 −/−): 2 fold
Compound: Nc1nc(Cl)nc2c1ncn2[C@@H]1O[C@H](CO)[C@@H](O)[C@@H]1F [clofarabine]
dependence of anti-leukemic activity on expression levels of SAMHD1 (HEL SAMHD1 wt): depends on expression levels of SAMHD1 albeit to a lesser extent than for cytarabine

Compound: cytarabine triphosphate
substrate or activator of SAMHD1's triphosphohydrolase activity (SAMHD1): direct substrate, but not as an activator
